# “And” between values parts separate entries of the source, which are not always exact repeats. Equal entries are not always repeated.
# Assays:
# [1] = tested on: TAMs; test: Transwell 3D co-culture of pretreated A2780 cells and TAMs, spheroid volume; type: cell-based, mouse
# Method: A2780 tumor cells were pretreated with 100 nM NHWD-870 and then directly co-cultured with TAMs (A2780:TAMs ratio as 4:1) at the density of 1 × 10^5 total cells in a 12-well. Shown are immunofluorescent staining of Ki67 and CD68 (a) and quantification of Ki67+ and CD68− or CD68+ cells (b). Scale bar is 50 μm. […] A2780 cells (pre-treated with or without 100 nM NHWD-870 for 48 h) were seeded into the top chamber (transwell size: 0.4 μm) and TAMs (Mac, 40,000 cells per 24-well) in medium containing 2% matrigel were seeded into the bottom chamber pre-coated with Matrigel. No NHWD-870 was added to the co-culture. The upper chamber without A2780 cells was used as a control. Shown are schematics of transwell co-culture experiment (c), representative pictures of TAM spheroid (d: black/white), and quantification of spheroid volumes (e). Scale bar is 50 μm. […] Data are presented as mean ± SEM from three independent experiments. g CSF1 protein levels in supernatant of 10^6 ID8, B16, A2780, SKOV3, and A375 cells treated with DMSO or 25 nM NHWD-870 for 24 h, as measured by ELISA. […] Scale bar is 20 μm. i Quantification of CSF1 staining in DMSO or 100 nM NHWD-870 treated A2780 cells. […] Shown are representative immunofluorescent staining of CSF1 (green) and CD68 (red) (j) and quantification of CSF1 staining (k). […]
# [2] = tested on: A375 melanoma cells; test: AlamarBlue assay, A375; type: cell-based, human; conditions: for Cellular activity in melanoma cells (A375), alamarBlue: Fig.1g, replicates
# Method: 3. AlamarBlue assay. AlamarBlue was made by resazurin sodium salt (Sigma, Cat
# # 199303) dissolved in PBS.
# NCI-H211, MDA-MB231 and A375 cells were plated in 96-well plates at approximately 30% confluence and left overnight to adhere. In the following day, […]
# of treatment, 10 μl AlamarBlue reagent (0.3 mg/ml) was added to each well, and after 18h, the florescence intensity in each well was measured using a top-reading fluorescent plate reader with excitation at 530 nm and emission at 590 nm. […]
# [3] = tested on: MDA-MB231 TNBC; test: MDA-MB231 TNBC xenograft growth; type: in vivo, mouse; parameters: MDA-MB231 tumor size (Sup Fig.9d; quantity and unit not given): unit not given here
# Method: 4–6 weeks old female BALB/c nude mice were used for most experiments, with the exception of 6–8 weeks old female C57BL/6 mice were used for B16F10 experiments, and 6–8 weeks old male BALB/c nude mice and SD rats were used for pharmacokinetic experiments. All animals were purchased from Shanghai SIPPR-Bk Lab Animal Co., Ltd. All animals were housed under a regimen of 12 h light/12 h dark cycles and specific pathogen-free conditions. 5×10^6 NCI-H526, ES-2, MDA-MB231, A2780, A375, B16F10, and TMD-8 cells (0.1 ml) were injected subcutaneously into female nude mice. The melanoma patient-derived xenograft model was derived from a human melanoma sample (BRAF, NARS and NF1 wild type, and p53 mutant) removed from a patient in Xiangya Hospital. Surgically removed tumor fragments were implanted subcutaneously into female NSG mice. When the tumors grew to ~1000 mm^3, they were harvested and cryopreserved or immediately re-implanted for expansion or experiments. Mouse body weight and tumor sizes were measured every 3 days. Once the tumors grew to 150–200 mm^3, mice were treated with the compounds as described in the Figures. 1 × 10^6 A2780 cells (1 ml) were injected into the abdominal cavity of nude mice. Ascitic volume and tumor weight were measured by an electronic balance. All the procedures were evaluated and approved by the Institutional Animal Care and Use Committee of Central South University and Yale University.
# Supplementary Figure 9. […]
# PO, oral administration; QD, once daily; BID, twice daily; D, day. (c,d) Tumor growth curves for ES2 ovarian tumor (c), MDA-MB231 breast tumor (d) bearing mice treated with the indicated compounds for 21 days. Compounds were orally administrated once daily. Data are presented as mean ± SEM from 6 different mice. p values were calculated using two-tailed, unpaired t tests.
# **, p<0.01; ***, p<0.001. Source data are provided as a Source Data file. […]
smiles,measurement,setting,value
Cc1nnn(C)c1-c1cnc2c3c4cnn(C)c4ccc3n([C@H](c3ccccc3)C3CCOCC3)c2c1 [NHWD-870],fold decrease of the growth of TAMs,"[1]; 100 nM, 3-D culture, Fig 5c-e",about 8 fold
same,ability of A2780 to support the growth of TAMs,"[1]; A2780 pretreated with 100 nM, 3D co-culture",completely abolished the ability of A2780 to support the growth of TAMs
same,fold more potent than GSK-525762 or OTX015,[2]; A375 cells,about 14 fold
same,fold more potent than I-BET151,[2]; A375 cells,about 23 fold
same,"Cellular activity in melanoma cells (A375), alamarBlue",[2]; concentration(nM) 0.21442,0.8628 and 1.0579
same,"Cellular activity in melanoma cells (A375), alamarBlue",[2]; concentration(nM) 0.31236,16.3424 and 12.5613
same,"Cellular activity in melanoma cells (A375), alamarBlue",[2]; concentration(nM) 0.4103,30.3045 and 25.7042
same,"Cellular activity in melanoma cells (A375), alamarBlue",[2]; concentration(nM) 0.6032,65.3038 and 63.4524
same,"Cellular activity in melanoma cells (A375), alamarBlue",[2]; concentration(nM) 1.2043,75.3216 and 83.4358
same,"Cellular activity in melanoma cells (A375), alamarBlue",[2]; concentration(nM) 1.8024,92.8346 and 91.942
same,"Cellular activity in melanoma cells (A375), alamarBlue",[2]; concentration(nM) 2.4,100.774 and 99.5602
same,"Cellular activity in melanoma cells (A375), alamarBlue",[2]; concentration(nM) 3,101.341 and 101.79
same,IC50,"[2]; Homo sapiens, A-375, nM printed in b8, the picture prints no unit, read-out: IC50, cellular activity in A375 (alamarBlue)",2.46 nM
same,MDA-MB231 tumor size (Sup Fig.9d; quantity and unit not given),"[3]; 1mg/kg p.o. QD x 21D, day 0, individual animals",279.42 and 121.19 and 223.85 and 207.81 and 142.25 and 116.01
same,MDA-MB231 tumor size (Sup Fig.9d; quantity and unit not given),"[3]; 1mg/kg p.o. QD x 21D, day 3, individual animals",342.36 and 216.69 and 301.84 and 236.23 and 182.39 and 129.14
same,MDA-MB231 tumor size (Sup Fig.9d; quantity and unit not given),"[3]; 1mg/kg p.o. QD x 21D, day 7, individual animals",454.4 and 329.94 and 520.71 and 309.24 and 176.3 and 192.56
same,MDA-MB231 tumor size (Sup Fig.9d; quantity and unit not given),"[3]; 1mg/kg p.o. QD x 21D, day 10, individual animals",681 and 486.76 and 545.06 and 482.5 and 217.9 and 268.16
same,MDA-MB231 tumor size (Sup Fig.9d; quantity and unit not given),"[3]; 1mg/kg p.o. QD x 21D, day 14, individual animals",889.946 and 639.335 and 784.126 and 538.093 and 253.479 and 345.127
same,MDA-MB231 tumor size (Sup Fig.9d; quantity and unit not given),"[3]; 1mg/kg p.o. QD x 21D, day 17, individual animals",973.96 and 796.38 and 1110.48 and 713.45 and 300.77 and 432.71
same,MDA-MB231 tumor size (Sup Fig.9d; quantity and unit not given),"[3]; 1mg/kg p.o. QD x 21D, day 21, individual animals",1038.8 and 904.78 and 1426.58 and 1004.43 and 413.96 and 626.93
same,MDA-MB231 tumor size (Sup Fig.9d; quantity and unit not given),"[3]; 3mg/kg p.o. QD x 21D, day 0, individual animals",118.16 and 163.39 and 132.22 and 223.66 and 238.14 and 193.21
same,MDA-MB231 tumor size (Sup Fig.9d; quantity and unit not given),"[3]; 3mg/kg p.o. QD x 21D, day 3, individual animals",111.38 and 180.22 and 170.04 and 238.46 and 333.75 and 199.82
same,MDA-MB231 tumor size (Sup Fig.9d; quantity and unit not given),"[3]; 3mg/kg p.o. QD x 21D, day 7, individual animals",184.36 and 185.35 and 194.47 and 370.49 and 294.2 and 222.64
same,MDA-MB231 tumor size (Sup Fig.9d; quantity and unit not given),"[3]; 3mg/kg p.o. QD x 21D, day 10, individual animals",223.77 and 229.36 and 217.46 and 450.48 and 331.57 and 251.49
same,MDA-MB231 tumor size (Sup Fig.9d; quantity and unit not given),"[3]; 3mg/kg p.o. QD x 21D, day 14, individual animals",325.631 and 331.431 and 303.664 and 453.402 and 392.114 and 282.288
same,MDA-MB231 tumor size (Sup Fig.9d; quantity and unit not given),"[3]; 3mg/kg p.o. QD x 21D, day 17, individual animals",488.17 and 465.37 and 409.38 and 652.35 and 540.67 and 429.56
same,MDA-MB231 tumor size (Sup Fig.9d; quantity and unit not given),"[3]; 3mg/kg p.o. QD x 21D, day 21, individual animals",586.22 and 557.41 and 558.02 and 759.6 and 643.46 and 481.28
same,effect on tumor growth,"[3]; MDA-MB231 TNBC, oral once daily 21 days",strong tumor-suppressive effects
